Test results as given in patent US20240041877A1, “DOSAGE REGIME AND METHOD FOR TREATING PULMONARY ARTERIAL HYPERTENSION” (Altavant Sciences GmbH, priority 2019, published 2024).
Read-outs that look alike come from different tables or passages of the source.

Test: Part 1 (SAD): urine pharmacokinetics (amount excreted, renal clearance) after a single oral dose of KAR5585
Assay type: in vivo, human
Conditions: for CL renal: human
Experimental: Renal clearance of KAR5417 was calculated from the area under the plasma time concentration curve (AUC0-96) for KAR5417 and the amount of KAR5417 recovered in urine (Table 21).

[1] = KAR5585 in urine, 100 mg KAR5585 single oral dose, mean
[2] = KAR5585 in urine, 200 mg KAR5585 single oral dose, mean
[3] = KAR5585 in urine, 400 mg (Fasted) KAR5585 single oral dose, mean
[4] = KAR5585 in urine, 400 mg (Fed) KAR5585 single oral dose, mean
[5] = KAR5585 in urine, 700 mg KAR5585 single oral dose, mean

CCOC(=O)[C@@H]1CC2(CCN(c3cc(O[C@H](c4ccc(Cl)cc4-c4ccccc4)C(F)(F)F)nc(N)n3)CC2)CN1 [KAR5585, (S)-ethyl 8-(2-amino-6-((R)-1-(5-chloro-[1,1′-biphenyl]-2-yl)-2,2,2-trifluoroethoxy)pyrimidin-4-yl)-2,8-diazaspiro[4.5]decane-3-carboxylate]
Amount Excreted (Ae) [1]: 0 µg
Total Excreted (%) [1]: 0%
Amount Excreted (Ae) [2]: 0 µg
Total Excreted (%) [2]: 0%
Amount Excreted (Ae) [3]: 13.8 µg
Total Excreted (%) [3]: 0.00346%
Amount Excreted (Ae) [4]: 0 µg
Total Excreted (%) [4]: 0%
Amount Excreted (Ae) [5]: 0 µg
Total Excreted (%) [5]: 0%
Amount Excreted (Ae) (KAR5585 in urine, 2000 mg KAR5585 single oral dose, mean): 1.50 µg
CL renal (urine and plasma, po, 2000 mg, KAR5585, 2000 mg KAR5585 single oral dose, mean, read-out: CLR (converted)): 0.0383 mL/min

Nc1nc(O[C@H](c2ccc(Cl)cc2-c2ccccc2)C(F)(F)F)cc(N2CCC3(CC2)CN[C@H](C(=O)O)C3)n1 [KAR5417, (S)-8-(2-amino-6-((R)-1-(5-chloro-[1,1T-biphenyl]-2-yl)-2,2,2-trifluoroeth-oxy)pyrimidin-4-yl)-2,8-diazaspiro[4.5]decane-3-carboxylic acid]
highest amount excreted in urine (400 mg fed Cohort (Cohort 3B)): 0.331 % of the dose
Amount Excreted (Ae) (KAR5417 in urine, 100 mg KAR5585 single oral dose, mean): 233 µg
Total Excreted (%) (KAR5417 in urine, 100 mg KAR5585 single oral dose, mean, assuming complete conversion of KAR5585 to KAR5417): 0.245%
Amount Excreted (Ae) (KAR5417 in urine, 200 mg KAR5585 single oral dose, mean): 211 µg
Total Excreted (%) (KAR5417 in urine, 200 mg KAR5585 single oral dose, mean, assuming complete conversion of KAR5585 to KAR5417): 0.111%
Amount Excreted (Ae) (KAR5417 in urine, 400 mg (fasted) KAR5585 single oral dose, mean): 769 µg
Total Excreted (%) (KAR5417 in urine, 400 mg (fasted) KAR5585 single oral dose, mean, assuming complete conversion of KAR5585 to KAR5417): 0.202%
Amount Excreted (Ae) (KAR5417 in urine, 400 mg (fed) KAR5585 single oral dose, mean): 1260 µg
Total Excreted (%) (KAR5417 in urine, 400 mg (fed) KAR5585 single oral dose, mean, assuming complete conversion of KAR5585 to KAR5417): 0.331%
Amount Excreted (Ae) (KAR5417 in urine, 700 mg KAR5585 single oral dose, mean): 998 µg
Total Excreted (%) (KAR5417 in urine, 700 mg KAR5585 single oral dose, mean, assuming complete conversion of KAR5585 to KAR5417): 0.150%
Amount Excreted (Ae) (KAR5417 in urine, 1200 mg KAR5585 single oral dose, mean): 1170 µg
Total Excreted (%) (KAR5417 in urine, 1200 mg KAR5585 single oral dose, mean, assuming complete conversion of KAR5585 to KAR5417): 0.102%
Amount Excreted (Ae) (KAR5417 in urine, 2000 mg KAR5585 single oral dose, mean): 2130 µg
Total Excreted (%) (KAR5417 in urine, 2000 mg KAR5585 single oral dose, mean, assuming complete conversion of KAR5585 to KAR5417): 0.112%
CL renal (plasma and urine, oral, from plasma AUC0-96 and amount recovered in urine, read-out: Renal clearance, range across doses): 2.62 to 4.93 mL/min
CL renal (urine and plasma, po, 100 mg, KAR5417, 100 mg KAR5585 single oral dose, mean, read-out: CLR (converted)): 4.93 mL/min
CL renal (urine and plasma, po, 200 mg, KAR5417, 200 mg KAR5585 single oral dose, mean, read-out: CLR (converted)): 2.67 mL/min
CL renal (urine and plasma, po, 400 mg, KAR5417, 400 mg (fasted) KAR5585 single oral dose, mean, read-out: CLR (converted)): 3.62 mL/min
CL renal (urine and plasma, po, 400 mg, KAR5417, 400 mg (fed) KAR5585 single oral dose, mean, read-out: CLR (converted)): 3.18 mL/min
CL renal (urine and plasma, po, 700 mg, KAR5417, 700 mg KAR5585 single oral dose, mean, read-out: CLR (converted)): 3.18 mL/min
CL renal (urine and plasma, po, 1200 mg, KAR5417, 1200 mg KAR5585 single oral dose, mean, read-out: CLR (converted)): 2.62 mL/min
CL renal (urine and plasma, po, 2000 mg, KAR5417, 2000 mg KAR5585 single oral dose, mean, read-out: CLR (converted)): 3.43 mL/min
